Test results reported in patent publication US8809341B2, “2,4-pyrimidinediamine compounds and uses as anti-proliferative agents” (Rigel Pharmaceuticals, Inc., priority 2003, dated 2014).
pIC50: −log10 of the molar value. Like-named read-outs stand apart in the source and are kept apart here.

Columns and labels:
Assay type in all cases: cell-based
A549 cells = assay: in vitro antiproliferation assay, A549 (lung)
Summary of the method: (§1)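 Standard in vitro antiproliferation assays on tumour cell lines, including A549 and H1299 (both lung); IC50 values determined.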

PC3 = assay: in vitro antiproliferation assay, PC3 (prostate)
Method: (§2) The IC50 values of various compounds against a various different tumor cell lines were determined using standard in vitro antiproliferation assays. The tumor cell lines tested were as follows: A549 (lung); H1299 (lung), ACHN (kidney/p53 wt), CAKI (renal cell carcinoma), NCI-H460 (lung); HCT116 (colon/p53w0; HELA (cervix/p53 wt), HUH7 (liver/p53 wt), HUVEC (primary endothelial), LNCAP (prostate), HT-29 (colon); MCF-7 (breast); MCF-7 (breast/ER positive), MDA MB435S (breast); MDA MB231 (breast/ER negative), DU145 (prostate); BxPC-3 (pancreatic); SKOV-3 (ovarian); HepG2 (hepatic), NDHF primary normal human dermal fibroblast), SKMEL28 (breast/p53mut), SKMEL5 (breast/p53 wt), U20S (bone) and PC3 (prostate). […] A blank indicates the specified compound was not tested against the specified cell line.
(§3) Many of the compounds were tested against other cell lines. Their activity is reported in TABLE 15, below, where +”, “−”, “−/+” or “+/−” values are as described for TABLES 1-14. Where the cell line includes a value in a parenthetical, the value indicates the seeding density at which the assay was performed

HCT116 = assay: in vitro antiproliferation assay, HCT116 (colon)
Method: as §2, §3

H1299 cells = assay: in vitro antiproliferation assay, H1299 (lung)
Summary of the method: as §1

[1] = in vitro antiproliferation, A549 (lung) cells, Table 4, compounds with no designated stereochemistry tested as racemate
[2] = IC50 class against A549 (lung) tumor cells
[3] = HCT116 (colon), read-out: HCT116
[4] = IC50 class against H1299 (lung) tumor cells
[5] = Table 5, in vitro antiproliferation, A549 (lung) cells
[6] = Table 5, in vitro antiproliferation, H1299 (lung) cells
[7] = Table 7, in vitro antiproliferation, A549 (lung) cells
[8] = Table 7, in vitro antiproliferation, colon cells, read-out: HTC116

CNC(=O)COc1cccc(Nc2ncc(F)c(Nc3ccc4c(c3)NC(=O)C(C)O4)n2)c1 (racemic) [compound 256]
pIC50 (A549 cells; [1]): ≥ 4.70 | pIC50 (PC3): ≥ 4.70

COC(=O)N1CCN(c2ccc(Nc3ncc(F)c(NC4CC4)n3)cc2)CC1 [compound 104]
pIC50 (A549 cells; [2]): ≥ 4.70 | pIC50 (HCT116; [3]): < 4.70 | pIC50 (H1299 cells; [4]): ≥ 4.70

O=C(COc1cccc(Nc2ncc(F)c(NC3CCC3)n2)c1)NC1CC1 [compound 110]
pIC50 (A549 cells; [2]): ≥ 4.70 | pIC50 (HCT116; [3]): ≥ 4.70 | pIC50 (H1299 cells; [4]): ≥ 4.70

Fc1cnc(Nc2ccc(Cl)c(Cl)c2)nc1NC1CCC1 [compound 111]
pIC50 (A549 cells; [2]): ≥ 4.70 | pIC50 (HCT116; [3]): ≥ 4.70 | pIC50 (H1299 cells; [4]): ≥ 4.70

COc1ccc(Nc2ncc(F)c(NC3CCC3)n2)cc1Cl [compound 112]
pIC50 (A549 cells; [2]): ≥ 4.70 | pIC50 (HCT116; [3]): ≥ 4.70 | pIC50 (H1299 cells; [4]): ≥ 4.70

O=C1COc2ccc(Nc3nc(Nc4cccc(O)c4)ncc3F)cc2N1 [compound 254]
pIC50 (A549 cells; [1]): ≥ 4.70 | pIC50 (PC3): ≥ 4.70

Cc1c(Cl)cc(Nc2ncc(F)c(Nc3ccc4c(c3)NC(=O)C(C)(C)O4)n2)cc1Cl [compound 306]
pIC50 (A549 cells; [1]): ≥ 4.70 | pIC50 (HCT116; [3]): < 4.70 | pIC50 (H1299 cells; in vitro antiproliferation, H1299 (lung) cells, Table 4, compounds with no designated stereochemistry tested as racemate): ≥ 4.70

CNC(=O)COc1cccc(Nc2ncc(F)c(Nc3ccc4c(n3)NC(=O)CO4)n2)c1 [compound 418]
pIC50 (PC3): ≥ 4.70

O=C(COc1cccc(Nc2ncc(F)c(Nc3ccc4c(c3)OCCO4)n2)c1)N1CCOCC1 [compound 493]
pIC50 (A549 cells; [5]): > 4.70 | pIC50 (HCT116; [3]): > 4.70 | pIC50 (H1299 cells; [6]): ≥ 4.70

Fc1cnc(Nc2cccc(OCCN3CCOCC3)c2)nc1Nc1ccc2c(c1)OCCO2 [compound 494]
pIC50 (A549 cells; [5]): ≥ 4.70 | pIC50 (HCT116; [3]): ≥ 4.70 | pIC50 (H1299 cells; [6]): ≥ 4.70

CNC(=O)COc1cccc(Nc2ncc(F)c(Nc3ccc4c(c3)OCCO4)n2)c1 [compound 495]
pIC50 (A549 cells; [5]): > 4.70 | pIC50 (HCT116; [3]): ≥ 4.70 | pIC50 (H1299 cells; [6]): ≥ 4.70

Fc1cnc(Nc2cccc(OCCN3CCOCC3)c2)nc1Nc1ccc2c(c1)OCCO2 [compound 500]
pIC50 (PC3): < 4.70

CNC(=O)COc1ccc(Nc2ncc(F)c(Nc3ccc4c(c3)OCCO4)n2)cc1 [compound 501]
pIC50 (A549 cells; [5]): < 4.70 | pIC50 (PC3): < 4.70

Fc1cnc(Nc2ccc(OCCN3CCOCC3)cc2)nc1Nc1ccc2c(c1)OCCO2 [compound 502]
pIC50 (A549 cells; [5]): < 4.70 | pIC50 (PC3): < 4.70

O=C(COc1cccc(Nc2ncc(F)c(Nc3ccc4c(c3)OCCO4)n2)c1)NC1CCCCC1 [compound 508]
pIC50 (A549 cells; [5]): < 4.70 | pIC50 (PC3): < 4.70

CN(CCO)C(=O)COc1cccc(Nc2ncc(F)c(Nc3ccc4c(c3)OCCO4)n2)c1 [compound 509]
pIC50 (A549 cells; [5]): < 4.70 | pIC50 (PC3): < 4.70

CN(C)CCOc1cccc(Nc2ncc(F)c(Nc3ccc4c(c3)OCCO4)n2)c1 [compound 510]
pIC50 (A549 cells; [5]): < 4.70 | pIC50 (PC3): < 4.70

CC(C)c1ccc(Nc2ncc(F)c(Nc3ccc4c(c3)OCCO4)n2)cc1 [compound 511]
pIC50 (A549 cells; [5]): < 4.70 | pIC50 (PC3): ≥ 4.70

CNC(=O)COc1cccc(Nc2ncc(F)c(Nc3ccc4c(c3)OCCO4)n2)c1 [compound 516]
pIC50 (PC3): ≥ 4.70

OCc1cc(CO)cc(Nc2ncc(F)c(Nc3ccc4c(c3)OCCO4)n2)c1 [compound 529]
pIC50 (A549 cells; [5]): ≥ 4.70 | pIC50 (HCT116; [3]): ≥ 4.70 | pIC50 (H1299 cells; [6]): ≥ 4.70

OCc1cc(CO)cc(Nc2ncc(F)c(Nc3ccc4c(c3)OC(F)(F)C(F)(F)O4)n2)c1 [compound 534]
pIC50 (HCT116; [3]): ≥ 4.70 | pIC50 (H1299 cells; [6]): ≥ 4.70

COC(=O)COc1cccc(Nc2ncc(F)c(Nc3ccc4c(c3)OCCCO4)n2)c1 [compound 580]
pIC50 (A549 cells; [5]): < 4.70 | pIC50 (PC3): < 4.70

CC(C)Oc1cccc(Nc2nc(Nc3ccc4oc(C(=O)N5CCOCC5)cc4c3)ncc2F)c1 [compound 625]
pIC50 (A549 cells; [7]): ≥ 4.70 | pIC50 (HCT116; [8]): ≥ 4.70

O=C(c1cc2cc(Nc3ncc(F)c(Nc4ccc5c(c4)OCCO5)n3)ccc2o1)N1CCOCC1 [compound 626]
pIC50 (A549 cells; [7]): > 4.70 | pIC50 (HCT116; [3]): ≥ 4.70 | pIC50 (HCT116; [8]): ≥ 4.70

CNC(=O)c1cc2cc(Nc3ncc(F)c(Nc4ccc5c(c4)OCCO5)n3)ccc2o1 [compound 629]
pIC50 (A549 cells; [7]): ≥ 4.70 | pIC50 (HCT116; [3]): ≥ 4.70 | pIC50 (HCT116; [8]): ≥ 4.70

O=C(NCCO)c1cc2cc(Nc3ncc(F)c(Nc4ccc5c(c4)OCCO5)n3)ccc2o1 [compound 631]
pIC50 (A549 cells; [7]): ≥ 4.70 | pIC50 (HCT116; [3]): ≥ 4.70 | pIC50 (HCT116; [8]): ≥ 4.70

O=C(c1cc2cc(Nc3ncc(F)c(Nc4ccc5c(c4)OCCO5)n3)ccc2o1)N1CCNCC1 [compound 632]
pIC50 (A549 cells; [7]): ≥ 4.70 | pIC50 (HCT116; [3]): ≥ 4.70 | pIC50 (HCT116; [8]): ≥ 4.70
